# Results reported in BindingDB's records for doi:10.1016/j.bmcl.2004.06.041 (Abbott Laboratories, 2004).
# Target: Vascular endothelial growth factor receptor 2 (Homo sapiens, UniProt P35968)
# Test: Homogeneous Time-resolved Fluorescence (HTRF) Assay
# Conditions: pH 7.4; 22 °C
# From the text: The assay was using baculovirus-expressed recombinant protein kinase and biotinylated poly-Glu-Ala-Tyr substrate.
# Vascular endothelial growth factor receptor 2, sequence (P35968 whole entry): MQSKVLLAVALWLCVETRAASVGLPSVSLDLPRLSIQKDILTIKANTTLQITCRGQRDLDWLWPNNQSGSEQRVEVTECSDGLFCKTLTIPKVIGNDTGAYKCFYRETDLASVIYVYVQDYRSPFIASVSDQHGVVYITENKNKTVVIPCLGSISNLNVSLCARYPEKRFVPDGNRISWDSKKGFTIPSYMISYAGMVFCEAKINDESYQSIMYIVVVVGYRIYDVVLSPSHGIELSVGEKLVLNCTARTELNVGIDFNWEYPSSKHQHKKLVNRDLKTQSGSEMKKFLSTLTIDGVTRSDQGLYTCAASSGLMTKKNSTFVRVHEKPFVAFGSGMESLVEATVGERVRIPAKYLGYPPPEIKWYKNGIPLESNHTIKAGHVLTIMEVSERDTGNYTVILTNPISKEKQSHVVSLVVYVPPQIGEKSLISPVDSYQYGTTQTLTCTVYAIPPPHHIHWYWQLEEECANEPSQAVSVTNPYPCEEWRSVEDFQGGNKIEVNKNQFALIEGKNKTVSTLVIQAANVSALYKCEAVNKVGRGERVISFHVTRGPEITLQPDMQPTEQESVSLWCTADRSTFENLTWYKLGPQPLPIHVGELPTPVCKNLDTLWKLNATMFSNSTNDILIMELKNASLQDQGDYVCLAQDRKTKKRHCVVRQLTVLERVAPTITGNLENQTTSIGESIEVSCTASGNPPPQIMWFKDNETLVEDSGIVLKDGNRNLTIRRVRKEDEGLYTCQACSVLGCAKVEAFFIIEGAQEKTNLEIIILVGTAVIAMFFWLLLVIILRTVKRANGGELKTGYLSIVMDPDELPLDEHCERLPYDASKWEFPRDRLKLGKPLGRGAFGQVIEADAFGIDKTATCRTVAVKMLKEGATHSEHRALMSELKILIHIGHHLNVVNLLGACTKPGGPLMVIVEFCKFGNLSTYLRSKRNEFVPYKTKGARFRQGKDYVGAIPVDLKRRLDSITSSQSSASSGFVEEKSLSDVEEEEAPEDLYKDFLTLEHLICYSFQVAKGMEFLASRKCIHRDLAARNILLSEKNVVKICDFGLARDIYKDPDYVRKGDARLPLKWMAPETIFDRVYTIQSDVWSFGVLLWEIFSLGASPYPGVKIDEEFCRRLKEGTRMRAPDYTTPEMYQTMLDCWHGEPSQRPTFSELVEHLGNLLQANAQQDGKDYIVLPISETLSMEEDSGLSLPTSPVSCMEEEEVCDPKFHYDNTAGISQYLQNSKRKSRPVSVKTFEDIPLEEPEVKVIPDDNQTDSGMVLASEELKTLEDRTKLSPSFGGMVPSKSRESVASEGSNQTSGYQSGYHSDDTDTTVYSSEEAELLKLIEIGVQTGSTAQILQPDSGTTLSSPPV
row,IC50 [nM],SMILES
1,263,"COc1cc(-c2nn(C3CCC(N4CCN(C)CC4)CC3)c3ncnc(N)c23)ccc1NC(=O)Nc1ccccc1 [1-(4-{(S)-4-Amino-1-[4-(4-methyl-piperazin-1-yl)-cyclohexyl]-1H-pyrazolo[3,4-d]pyrimidin-3-yl}-2-methoxy-phenyl)-3-phenyl-urea]"
2,> 50000,"COc1cc(-c2nn(C3CCC(N4CCN(C)CC4)CC3)c3ncnc(N)c23)ccc1NC(=O)c1ccccc1 [N-(4-{(S)-4-Amino-1-[4-(4-methyl-piperazin-1-yl)-cyclohexyl]-1H-pyrazolo[3,4-d]pyrimidin-3-yl}-2-methoxy-phenyl)-benzamide]"
